Laboratory results from patent US4401594A, “L-Argininal derivatives and a method of manufacturing the same” (Nippon Kayaku Kabushiki Kaisha, priority 1980, dated 1983).
Structures can show the parent of a compound that is named as a salt. Where a SMILES comes first, the peptide text is derived from it. [ ]: non-standard residue; d: D form. The star is where a group is joined. pGlu = O=C1CC[C@@H](C(=O)O)N1; Cbz = O=C(OCc1ccccc1)*

Test system: fibrinolytic system
Assay: not given
Conditions: cited from earlier work

With CC(=O)N[C@@H](CC(C)C)C(=O)N[C@@H](CC(C)C)C(=O)N[C@H](C=O)CCCNC(=N)N [Leupeptin, acetyl or propionyl-L-leucyl-L-leucyl-L-argininal] as the compound, how does the “pharmacological action on the fibrinolytic system” value read?
Its value is “a pharmacological action on the fibrinolytic system”.

Test system: chickens with spontaneous muscular dystrophy
Assay: not given
Conditions: Libby et al., Science 1978; cited from earlier work

For CC(=O)N[C@@H](CC(C)C)C(=O)N[C@@H](CC(C)C)C(=O)N[C@H](C=O)CCCNC(=N)N [Leupeptin, acetyl or propionyl-L-leucyl-L-leucyl-L-argininal], which “inhibition of atrophy of the muscles” value is on record?
The value was “inhibits the atrophy of the muscles”.

Target: T1, plasmin (Homo sapiens, UniProt P00747)
T1 construct: fibrinogen substrate
T1 sequence (P00779 27-440): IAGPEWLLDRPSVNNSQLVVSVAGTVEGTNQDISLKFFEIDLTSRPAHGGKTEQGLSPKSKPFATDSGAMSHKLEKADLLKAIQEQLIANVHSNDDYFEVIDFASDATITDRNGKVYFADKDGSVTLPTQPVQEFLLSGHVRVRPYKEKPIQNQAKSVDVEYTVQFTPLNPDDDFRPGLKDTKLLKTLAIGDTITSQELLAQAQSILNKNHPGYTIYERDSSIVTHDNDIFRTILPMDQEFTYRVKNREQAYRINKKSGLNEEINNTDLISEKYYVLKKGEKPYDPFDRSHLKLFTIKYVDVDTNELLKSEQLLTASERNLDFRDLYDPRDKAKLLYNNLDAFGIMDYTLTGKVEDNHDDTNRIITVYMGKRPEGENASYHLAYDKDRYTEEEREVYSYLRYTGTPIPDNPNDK
T1 sequence (P00747 97-810): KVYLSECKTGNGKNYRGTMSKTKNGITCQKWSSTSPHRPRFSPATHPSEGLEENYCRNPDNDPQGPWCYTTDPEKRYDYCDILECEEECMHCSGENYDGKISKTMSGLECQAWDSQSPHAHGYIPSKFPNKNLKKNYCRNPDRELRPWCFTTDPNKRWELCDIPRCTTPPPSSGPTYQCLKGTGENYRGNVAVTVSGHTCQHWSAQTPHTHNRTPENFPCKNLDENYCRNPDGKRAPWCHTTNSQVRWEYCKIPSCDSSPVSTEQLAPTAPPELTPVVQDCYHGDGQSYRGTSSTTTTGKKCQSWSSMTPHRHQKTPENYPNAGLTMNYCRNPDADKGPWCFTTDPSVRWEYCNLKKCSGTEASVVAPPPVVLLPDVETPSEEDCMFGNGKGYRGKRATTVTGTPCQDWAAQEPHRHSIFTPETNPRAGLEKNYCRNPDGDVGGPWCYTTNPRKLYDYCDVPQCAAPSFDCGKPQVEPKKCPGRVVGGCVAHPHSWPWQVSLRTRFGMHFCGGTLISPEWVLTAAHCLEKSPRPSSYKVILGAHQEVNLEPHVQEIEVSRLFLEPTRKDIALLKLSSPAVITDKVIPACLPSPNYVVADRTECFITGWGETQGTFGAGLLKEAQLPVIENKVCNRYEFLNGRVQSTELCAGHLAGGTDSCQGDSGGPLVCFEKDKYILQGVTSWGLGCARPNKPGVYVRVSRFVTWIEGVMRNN
Assay: Determination of Anti-Plasmin Activity
Format: biochemical
Conditions: fibrinogen substrate, plasminogen from human serum + streptokinase, pH 7.2, 37° C., 20 minutes; read-out: IC50 Plasmin (converted)
Description: The inhibitory activity of the compounds on each protease was determined as follows:
Buffer solution: pH 7.2, 0.01 M phosphate buffer solution.
Substrate: 2 g of fibrinogen (Armour Pharm. Co., U.S.A.) were dissolved in 100 ml of the phosphate buffer solution under heat.
Enzyme: The human serum was mixed with 20 times as much water, and after acetic acid had been added into the mixture to adjust it to pH 5.2, the solution was left at room temperature for half an hour. The precipitates obtained by centrifugation at 3,000 rpm for 10 minutes was dissolved in an equal quantity of the buffer solution to that of the serum, and the resulting solution was subjected to centrigugation at 10,000 rpm for half an hour, whereby a plasminogen solution was obtained as the supernatant. A solution of streptokinase (Varidase, Lederle Lab., U.S.A.) having a concentration of 10,000 U/ml was prepared, and kept in a cold and dark place. Prior to use, it was diluted with the buffer solution into a solution having a concentration of 2,000 U/ml. The enzyme solution was adjusted prior to use so that 0.5 ml thereof might show an absorbance of about 0.4 at 280 nm after 20 minutes of reaction.
Method: 0.5 ml of the plasminogen solution, 0.3 ml of the phosphate buffer solution, 0.1 ml of the streptokinase solution, and 0.1 ml of the test sample or water were placed in a test tube (15 mm×100 mm). After the mixed solution in the test tube had been heated at 37° C. for three minutes, 2.0 ml of the fibrinogen solution were added into the solution in the test tube, and reacted therewith at 37° C. for 20 minutes. When the reaction had been completed, 1.5 ml of a 1.7 M perchloric acid solution were added into the test tube, and its contents were shaken slightly. After the test tube had been stood at room temperature for an hour, its contents were subjected to centrigugation at 3,000 rpm for 10 minutes. The absorbance (a) of the supernatant thus obtained was measured at 280 nm. The absorbance (b) of the controll solution not containing any compound of this invention was also measured.
The inhibition coefficients of the compounds of this invention on each enzyme were calculated from the absorbances (a) and (b) obtained as hereinabove described, in accordance with the following formula: [formula] These inhibition rates were obtained for various concentrations of the compounds according to this invention, and the concentration of a 50% inhibition (IC50) were calculated therefrom.

Which IC50 does the source give for CCCC(=O)N[C@@H](CC(C)C)C(=O)N[C@H](C=O)CCCNC(=N)N [Compound No. 1, n-Butanoyl-L-leucyl-L-argininal hydrochloride] here?
The IC50 was 37.8 µM.

For CC(C)C[C@H](NC(=O)Cc1ccccc1O)C(=O)N[C@H](C=O)CCCNC(=N)N [Compound No. 18, o-Hydroxyphenylacetyl-L-leucyl-L-argininal hydrochloride], which IC50 is on record?
The IC50 was 12.9 µM.

With CC(C)C[C@H](NC(=O)c1ccco1)C(=O)N[C@H](C=O)CCCNC(=N)N [Compound No. 26, Furan-2-carbonyl-L-leucyl-L-argininal hydrochloride] as the compound, how does the IC50 read?
The IC50 was 90.3 µM.

With CC(C)C[C@H](NC(=O)c1ccc([N+](=O)[O-])cc1)C(=O)N[C@H](C=O)CCCNC(=N)N [Compound No. 12, p-Nitrobenzoyl-L-leucyl-L-argininal hydrochloride] as the compound, how does the IC50 read?
The IC50 was 30.6 µM.

Which IC50 does the source give for CC(C)C[C@H](NC(=O)C1CCCCC1)C(=O)N[C@H](C=O)CCCNC(=N)N [Compound No. 6, Cyclohexanecarbonyl-L-leucyl-L-argininal hydrochloride] here?
Its IC50 is 56 µM.

With CC(C)C[C@H](NS(=O)(=O)c1cccc2c(N(C)C)cccc12)C(=O)N[C@H](C=O)CCCNC(=N)N [Compound No. 21, 5-Dimethylamino-1-naphthalenesulfonyl-L-leucyl-L-argininal 2 hydrochloride] as the compound, how does the IC50 read?
The IC50 was 24.4 µM.

For CC(C)C[C@H](NC(=O)[C@@H]1CCC(=O)N1C(=O)OCc1ccccc1)C(=O)N[C@H](C=O)CCCNC(=N)N [Compound No. 30, N-Benzyloxycarbonyl-L-pyroglutamyl-L-leucyl-L-argininal hydrochloride], which IC50 is on record?
Its IC50 is 0.958 µM.

For CC(C)C[C@H](NC(=O)Cc1ccccc1[N+](=O)[O-])C(=O)N[C@H](C=O)CCCNC(=N)N [Compound No. 16, o-Nitrophenylacetyl-L-leucyl-L-argininal hydrochloride], which IC50 is on record?
The IC50 was 42.5 µM.

Which IC50 does the source give for CC(C)C[C@H](NC(=O)Cc1ccccc1)C(=O)N[C@H](C=O)CCCNC(=N)N [Compound No. 15, Phenylacetyl-L-leucyl-L-argininal hydrochloride] here?
Its IC50 is 14.6 µM.

For CC(=O)N[C@@H](CC(C)C)C(=O)N[C@@H](CC(C)C)C(=O)N[C@H](C=O)CCCNC(=N)N [Leupeptin, acetyl or propionyl-L-leucyl-L-leucyl-L-argininal], which IC50 is on record?
Its IC50 is 11 µM.

Which IC50 does the source give for CC(C)C[C@H](NC(=O)c1ccccc1)C(=O)N[C@H](C=O)CCCNC(=N)N [Compound No. 8, Benzoyl-L-leucyl-L-argininal hydrochloride] here?
The IC50 was 44.4 µM.

For CC(C)C[C@H](NC(=O)C(O)c1ccccc1)C(=O)N[C@H](C=O)CCCNC(=N)N (mixture of isomers) [Compound No. 35, DL-Mandelyl-L-leucyl-L-argininal hydrochloride], which IC50 is on record?
Its IC50 is 3.17 µM.

For CC(C)C[C@H](NC(=O)[C@@H]1CCC(=O)N1)C(=O)N[C@H](C=O)CCCNC(=N)N [Compound No. 31, L-Pyroglutamyl-L-leucyl-L-argininal hydrochloride] ([pGlu]-Leu-Arg-aldehyde), which IC50 is on record?
The IC50 was 1.19 µM.

With CC(C)C[C@H](NS(=O)(=O)c1cccc2ccccc12)C(=O)N[C@H](C=O)CCCNC(=N)N [Compound No. 20, 1-Naphthalenesulfonyl-L-leucyl-L-argininal hydrochloride] as the compound, how does the IC50 read?
The IC50 was 28.2 µM.

For Cc1ccc(S(=O)(=O)N[C@@H](CC(C)C)C(=O)N[C@H](C=O)CCCNC(=N)N)cc1 [Compound No. 14, p-Toluenesulfonyl-L-leucyl-L-argininal hydrochloride], which IC50 is on record?
The IC50 was 14.5 µM.

Which IC50 does the source give for CC(C)C[C@H](NS(=O)(=O)c1ccccc1)C(=O)N[C@H](C=O)CCCNC(=N)N [Compound No. 13, Benzenesulfonyl-L-leucyl-L-argininal hydrochloride] here?
Its IC50 is 23.9 µM.

For CCCCCC(=O)N[C@@H](CC(C)C)C(=O)N[C@H](C=O)CCCNC(=N)N [Compound No. 3, n-Hexanoly-L-leucyl-L-argininal hydrochloride], which IC50 is on record?
The IC50 was 16.8 µM.

With CC(C)C[C@H](NC(=O)c1cccc(Cl)c1)C(=O)N[C@H](C=O)CCCNC(=N)N [Compound No. 9, m-Chlorobenzoyl-L-leucyl-L-argininal hydrochloride] as the compound, how does the IC50 read?
The IC50 was 13.4 µM.

With CCCCCCCCC(=O)N[C@@H](CC(C)C)C(=O)N[C@H](C=O)CCCNC(=N)N [Compound No. 5, n-Nonanoyl-L-leucyl-L-argininal hydrochloride] as the compound, how does the IC50 read?
The IC50 was 2.68 µM.

For CCC(CC)C(=O)N[C@@H](CC(C)C)C(=O)N[C@H](C=O)CCCNC(=N)N [Compound No. 2, 2-Ethylbutanoly-L-leucyl-L-argininal hydrochloride], which IC50 is on record?
Its IC50 is 81.2 µM.

Which IC50 does the source give for COc1ccc(C(=O)N[C@@H](CC(C)C)C(=O)N[C@H](C=O)CCCNC(=N)N)cc1 [Compound No. 11, p-Methoxybenzoyl-L-leucyl-L-argininal hydrochloride] here?
Its IC50 is 39.1 µM.

With CC(C)C[C@H](NC(=O)OCc1ccccc1)C(=O)N[C@H](C=O)CCCNC(=N)N [Compound No. 25, Benzyloxycarbonyl-L-leucyl-L-argininal hydrochloride] as the compound, how does the IC50 read?
Its IC50 is 33.9 µM.

For Cc1ccc(C(=O)N[C@@H](CC(C)C)C(=O)N[C@H](C=O)CCCNC(=N)N)cc1 [Compound No. 10, p-Methylbenzoyl-L-leucyl-L-argininal hydrochloride], which IC50 is on record?
The IC50 was 32.9 µM.

With CC(C)C[C@H](NC(=O)Cc1ccc([N+](=O)[O-])cc1)C(=O)N[C@H](C=O)CCCNC(=N)N [Compound No. 17, p-Nitrophenylacetyl-L-leucyl-L-argininal hydrochloride] as the compound, how does the IC50 read?
Its IC50 is 3.61 µM.

Which IC50 does the source give for CC(C)CC(=O)N[C@@H](CC(C)C)C(=O)N[C@H](C=O)CCCNC(=N)N [Compound No. 4, 3-Methylbutanoyl-L-leucyl-L-argininal hydrochloride] here?
Its IC50 is 21.4 µM.

Which IC50 does the source give for CC(C)C[C@H](NC(=O)[C@H](Cc1ccccc1)NC(=O)OCc1ccccc1)C(=O)N[C@H](C=O)CCCN=C(N)N [Compound No. 36, N-Benzyloxycarbonyl-L-phenylalanyl-L-leucyl-L-argininal hydrochloride] (Cbz-Phe-Leu-Arg-aldehyde) here?
The IC50 was 1.24 µM.

Same assay, conditions: read-out: IC50 Plasmin; fibrinogen substrate, plasminogen from human serum + streptokinase, pH 7.2, 37° C., 20 minutes

For CC(C)C[C@H](NC(=O)c1cccnc1)C(=O)N[C@H](C=O)CCCNC(=N)N [Compound No. 23, Nicotinyl-L-leucyl-L-argininal hydrochloride], which IC50 is on record?
Its IC50 is 23.9 µM.

With CC(C)C[C@H](NC(=O)c1ccncc1)C(=O)N[C@H](C=O)CCCNC(=N)N [Compound No. 22, Isonicotinyl-L-leucyl-L-argininal hydrochloride] as the compound, how does the IC50 read?
The IC50 was 88.7 µM.

With CC(C)C[C@H](NC(=O)[C@@H](O)[C@@H](Cc1ccccc1)NC(=O)OCc1ccccc1)C(=O)N[C@H](C=O)CCCNC(=N)N [Compound No. 37, N-Benzyloxycarbonyl-(2S,3R)-3-amino-2-hydroxy-4-phenylbutanoyl-L-leucyl-L-argininal hydrochloride] as the compound, how does the IC50 read?
Its IC50 is 2.4 µM.
